We go through nine compounds from PubChem BioAssay (NCI).

Values joined by “and” are separate entries in the source; they are usually repeats but may differ in a detail not shown here. Equal values may be shown once.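 Step 1: Grow cells in 96-well plates. Step 2: Expose to compound for 48 hours at 5 concentrations. Step 3: Interpolate endpoints linearly; if unreached, use highest concentration. GI50: concentration for 50% inhibition of growth. TGI marks complete inhibition of growth.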

Test systems include HT29 colon; MOLT-4 leukemia; CCRF-CEM leukemia; NCI-H460 lung; EKVX NSCLC; NCI-H522 lung; M14 melanoma; OVCAR-3 ovarian.
Test in all cases: growth of human tumour cells (NCI), 48 h

As for `O=C1C=CC(=Nc2cc(Br)c(O)c(Br)c2)C=C1`, the GI50 with HT29 colon is 18000 nM; in the test on MOLT-4 leukemia, 8.71 µM; in the test with CCRF-CEM leukemia, 3.53 µM; with NCI-H460 lung, 27.2 µM; in the test on EKVX NSCLC it was 52 µM; in the test on NCI-H522 lung, 3.96 µM. Besides, the GI50 is 23.9 µM in the test with M14 melanoma and 19700 nM with OVCAR-3 ovarian. Moreover, the TGI was 35 µM in the test on HT29 colon; greater than 100 µM in the test with MOLT-4 leukemia; greater than 100 µM with CCRF-CEM leukemia; 84.9 µM in the test with NCI-H460 lung; greater than 100 µM with EKVX NSCLC; 28.8 µM in the test on NCI-H522 lung. For the same compound, the TGI with M14 melanoma and in the test on OVCAR-3 ovarian was greater than 100 µM throughout.
On to `O=C(Nc1ccncc1)C(=O)c1cn(S(=O)(=O)c2ccc(Cl)cc2)c2ccccc12`, for which the GI50 is 397 nM in the test on HT29 colon; 3.63 µM in the test with MOLT-4 leukemia; 3.18 µM in the test with CCRF-CEM leukemia; 11.5 µM in the test on NCI-H460 lung; 2.62 µM in the test with EKVX NSCLC; 0.279 µM in the test on NCI-H522 lung. Further, the GI50 in the test on M14 melanoma was 0.634 µM; with OVCAR-3 ovarian it was 538 nM. Also, the TGI in the test on HT29 colon is greater than 32.4 µM; in the test with MOLT-4 leukemia, greater than 100 µM; with CCRF-CEM leukemia, greater than 100 µM; in the test with NCI-H460 lung, greater than 100 µM; in the test with EKVX NSCLC, greater than 100 µM; in the test with NCI-H522 lung, 1.08 µM. The TGI with M14 melanoma is greater than 52.1 µM; in the test with OVCAR-3 ovarian, 9.44 µM.
Turning to `C#Cc1c(/C=C/C(=O)OCC)ccc2ccccc12`, the GI50 is 6610 nM in the test with HT29 colon; 10.7 µM in the test on MOLT-4 leukemia; 14.6 µM with CCRF-CEM leukemia; 78.2 µM with NCI-H460 lung; 28 µM in the test with EKVX NSCLC; 13.4 µM with NCI-H522 lung. The GI50 in the test with M14 melanoma was 18.9 µM; in the test with OVCAR-3 ovarian, 16000 nM. Further, the TGI is 26 µM in the test on HT29 colon; 26.1 µM with MOLT-4 leukemia; 30.9 µM in the test on CCRF-CEM leukemia; greater than 100 µM in the test with NCI-H460 lung; 84.3 µM in the test on EKVX NSCLC; 31.1 µM in the test on NCI-H522 lung. The TGI with M14 melanoma was determined as 46 µM; in the test on OVCAR-3 ovarian, 40.6 µM.
Take `Cc1nc2ccccc2c(/C=C/c2ccc(Cl)cc2)c1C(=O)/C=C/c1ccc(C(F)(F)F)cc1`: the GI50 was 165 nM in the test with HT29 colon; 0.332 µM in the test on MOLT-4 leukemia; 0.291 µM with CCRF-CEM leukemia; 0.642 µM with NCI-H460 lung; 0.865 µM in the test on EKVX NSCLC; 0.198 µM in the test on NCI-H522 lung. Further, the GI50 in the test with M14 melanoma is 0.41 µM; with OVCAR-3 ovarian it was 292 nM. Moreover, the TGI in the test on HT29 colon is 0.54 µM; in the test on MOLT-4 leukemia, greater than 100 µM; in the test with CCRF-CEM leukemia, greater than 100 µM; in the test with NCI-H460 lung, 1.89 µM; in the test with EKVX NSCLC it was 2.31 µM; in the test on NCI-H522 lung, 0.838 µM. Moreover, the figures for the TGI in the test on M14 melanoma and with OVCAR-3 ovarian were 1.88 µM and 0.82 µM, respectively.
For `C#CCSc1cc(Cl)c(C)cc1S(=O)(=O)Nc1nc2ccccc2o1`, the GI50 in the test on HT29 colon is 42800 nM; in the test on MOLT-4 leukemia, 41.8 µM; in the test with CCRF-CEM leukemia it was 26.2 µM; with NCI-H460 lung, 37.5 µM; in the test with EKVX NSCLC, 43.4 µM; in the test with NCI-H522 lung, 25.7 µM. The GI50 was 32.1 µM in the test with M14 melanoma and 31900 nM in the test with OVCAR-3 ovarian. For the same compound, the TGI in the test on HT29 colon is greater than 100 µM; in the test on MOLT-4 leukemia, greater than 100 µM; in the test on CCRF-CEM leukemia, greater than 100 µM; in the test on NCI-H460 lung, greater than 100 µM; in the test on EKVX NSCLC it was greater than 100 µM; in the test on NCI-H522 lung, 61.5 µM. The TGI in the test with M14 melanoma worked out at 67.9 µM; with OVCAR-3 ovarian, 76.9 µM.
Turning to `Cc1nnc(-c2cccc(-c3ccc(C(=O)NCC4CC4)cc3)c2)o1`, the GI50 in the test on HT29 colon was greater than 25000 nM; in the test on MOLT-4 leukemia, greater than 25 µM; in the test on CCRF-CEM leukemia, greater than 25 µM; in the test with NCI-H460 lung, greater than 25 µM; with EKVX NSCLC, greater than 25 µM; in the test with NCI-H522 lung it was greater than 25 µM. The values for the GI50 in the test on M14 melanoma and with OVCAR-3 ovarian were greater than 25 µM and greater than 25000 nM, respectively. Moreover, the TGI in the test on HT29 colon, in the test on MOLT-4 leukemia, in the test on CCRF-CEM leukemia, with NCI-H460 lung, in the test on EKVX NSCLC and with NCI-H522 lung was greater than 25 µM each time. Also, the TGI in the test on M14 melanoma and in the test on OVCAR-3 ovarian was greater than 25 µM throughout.
`Cc1csc(/C=C/C(=O)c2nnn(-c3ccnc4c(C(F)(F)F)cccc34)c2C)c1`: the GI50 with HT29 colon was 27000 nM; in the test on MOLT-4 leukemia, 22.2 µM; with CCRF-CEM leukemia it was 21.9 µM; with NCI-H460 lung, 43.5 µM; with EKVX NSCLC it was 69.3 µM; in the test on NCI-H522 lung it was 26.4 µM. Besides, the results for the GI50 in the test with M14 melanoma and with OVCAR-3 ovarian were greater than 100 µM and greater than 100000 nM, respectively. Also, the TGI with HT29 colon is greater than 100 µM; in the test on MOLT-4 leukemia it was 66.9 µM; in the test with CCRF-CEM leukemia, greater than 100 µM; in the test on NCI-H460 lung, greater than 100 µM; in the test with EKVX NSCLC, greater than 100 µM; in the test with NCI-H522 lung, greater than 100 µM. In addition, the TGI with M14 melanoma and with OVCAR-3 ovarian was greater than 100 µM each time.
For `O=C(c1ccccc1)C(CN1CCCCC1)c1ccccc1` (centres undefined), the GI50 in the test with HT29 colon is 892 nM; with MOLT-4 leukemia it was 1.96 µM; in the test with CCRF-CEM leukemia, 0.301 µM; in the test with NCI-H460 lung, 10.2 µM; with EKVX NSCLC it was 3.5 µM; in the test on NCI-H522 lung, 0.316 µM. Also, the GI50 with M14 melanoma was 0.865 µM; in the test with OVCAR-3 ovarian, 1780 nM. The TGI in the test on HT29 colon stood at 5.67 µM; with MOLT-4 leukemia it was 5.09 µM; in the test with CCRF-CEM leukemia it was 2.34 µM; in the test on NCI-H460 lung, 26.1 µM; in the test with EKVX NSCLC, 16.7 µM; in the test with NCI-H522 lung, 2.53 µM. The results for the TGI in the test on M14 melanoma and in the test on OVCAR-3 ovarian were 2.63 µM and 3.25 µM, respectively.
On to `Cc1nc(-c2cn3c(n2)-c2ccc(-c4cnn(C(C)(C)C(N)=O)c4)cc2OCC3)n(C(C)C)n1`, for which the GI50 in the test with HT29 colon is 22.5 nM and 40.1 nM; in the test on MOLT-4 leukemia it was 0.136 µM and 0.282 µM; in the test on CCRF-CEM leukemia it was 0.338 µM and 0.765 µM; in the test with NCI-H460 lung, 0.111 µM and 0.169 µM; in the test on EKVX NSCLC it was 1.48 µM; with NCI-H522 lung it was 5.73 µM and 6.01 µM. In addition, the GI50 was 3.24 µM and 3.57 µM with M14 melanoma; 876 nM and 582 nM with OVCAR-3 ovarian. The TGI is 17.1 µM and > 10 µM in the test with HT29 colon; 22.8 µM and > 10 µM with MOLT-4 leukemia; 27.8 µM and > 10 µM with CCRF-CEM leukemia; greater than 100 µM with NCI-H460 lung; greater than 10 µM in the test on EKVX NSCLC; 26.7 µM and > 10 µM in the test on NCI-H522 lung. For the same compound, the TGI was 26 µM and > 10 µM with M14 melanoma; 16.6 µM and > 10 µM in the test with OVCAR-3 ovarian.
